Assays:
[1] = Pharmacokinetics in mice, single IV or oral administration; format: in vivo, mouse; details: for C0 / half-life / Cmax / Tmax: blood; for C0 / half-life / Cmax / Tmax / Cl_obs / F: mouse
Experimental: (§1) The pharmacokinetics of Compound 2R (HCl salt) and Comparative Compound 2 were studied following a single intravenous and/or oral administration to mice, dogs, and monkeys (n=3 for all species). The IV and PO solution formulations for Comparative Compound 2 contained 20% (w/v) propylene glycol, 75% (w/v) 50 mM trisodium phosphate (pH 12), and 5% (w/v) Kolliphor EL. The formulation for Compound 2R contained 1:2 propylene glycol: 1% Tween 80/Na3PO4 (50 mM). Subsequent pharmacokinetic data analysis was performed using non-compartmental analysis modules in Phoenix/WINNONLIN 6.3 (Pharsight, St. Louis, Mo., USA), and the linear trapezoidal rule was used for AUC calculation. Terminal elimination half-life (t½) was calculated based on data points (≥3) in the terminal phase; Tmax=Time of maximum observed concentration; AUClast/D=Area under the concentration-time curve from time zero to the last observed concentration/divided by dose; Cl_obs=Total body clearance; Cmax=maximum observed concentration; F=bioavailability of oral dose form. Blood samples were assayed for compounds using protein precipitation with acetonitrile followed by HPLC/MS/MS analysis. Blood concentration-time data were analyzed by non-compartmental methods.

[2] = Pharmacokinetics in dogs, single IV or oral administration; format: in vivo, dog; details: for C0 / half-life / Cmax / Tmax: blood; for C0 / half-life / Cmax / Tmax / Cl_obs / F: dog
Experimental: as §1

[3] = Pharmacokinetics in monkeys, single IV or oral administration; format: in vivo, monkey; details: for C0 / half-life / Cmax / Tmax: blood; for C0 / half-life / Cmax / Tmax / Cl_obs / F: monkey
Experimental: as §1

[4] = tested on: PIK3CA mutant human CAL-33 (squamous head and neck cancer); experiment: CAL-33 xenograft study in NCR nude mice; format: in vivo; details: for Median Increase In Survival: time to 1000 mg vs vehicle
Experimental: (§2) Xenograft Studies. Female NCR nude mice (CrTac:NCr-Foxn1nu from Taconic), 6-7 weeks old, were implanted subcutaneously with 5×10^6 cells in a 1:1 serum-free media/Matrigel® mixture into the region of the right axilla. Mice were randomized into treatment groups and treatments initiated when tumors reached 100 to 200 mg. Compound 2R was administered daily by oral gavage as a fine suspension in 1:2 propylene (glycol in 1% Tween80/Na3PO4 based upon individual animal body weight (0.2 mL/20 g). Subcutaneous tumor volume and body weights were measured two to three times a week. Tumor volumes were calculated by measuring two perpendicular diameters with calipers and using the formula: tumor volume=(length×width2)/2. Individual mice were dosed daily until their tumor burden reached 500 mg for the CAL-27 and HCC-70 models or 1000 mg for the CAL-33 model, to allow for calculation of increase in progression-free survival. Percent increase in survival was calculated by comparing the median time to reach either 500 mg or 1000 mg in the treated group versus the vehicle control group. A complete response (CR) is defined as a tumor below the limits of palpation (<40 mg).
(§3) FIGS. 1-3 show the performance of Compound 2R in controlling tumor size. […] Tumor growth curves as well as survival and objective response data are summarized in the accompanying FIGS. 1-3 and the table below.

[5] = tested on: PI3K gamma mutant human CAL-27 (squamous head and neck cancer); experiment: CAL-27 xenograft study in NCR nude mice; format: in vivo; details: CAL-27 model
Experimental: as §2, §3

[6] = tested on: human CAL-27 (squamous head and neck cancer); experiment: CAL-27 xenograft study in NCR nude mice; format: in vivo; details: time to 500 mg vs vehicle
Experimental: as §2, §3

[7] = tested on: human HCC-70 (triple negative breast cancer); experiment: HCC-70 xenograft study in NCR nude mice; format: in vivo
Experimental: as §2, §3

[8] = Tolerability in the xenograft studies; format: in vivo; details: highest dose tested 100 mg/kg, daily dosing over >50 days
Experimental: as §2, §3

**Q.** With `CS(=O)(=O)Nc1cc(-c2ccc3ncnc(Nc4ccc(F)c(Cl)c4)c3c2)cnc1Cl` [Comparative Compound 2, reference compound] as the compound, how does the C0 ([1]; 10 mg/kg, IV, 10 mpk) read?
**A.** 25600 ng/mL

**Q.** What about the half-life ([1]; 10 mg/kg, IV, 10 mpk) of the same compound?
**A.** 1.2 h

**Q.** What about the Cmax ([1]; 10 mg/kg, oral, 10 mpk) of the same compound?
**A.** 8270 ng/mL

**Q.** What about the Tmax ([1]; 10 mg/kg, oral, 10 mpk) of the same compound?
**A.** 1 h

**Q.** What about the half-life ([1]; 10 mg/kg, oral, 10 mpk) of the same compound?
**A.** 1.4 h

**Q.** What about the Cl_obs ([1]; IV, 10 mpk) of the same compound?
**A.** 3.3 mL/min/kg

**Q.** And the F ([1]; oral, 10 mpk)?
**A.** 63%

**Q.** What about the C0 ([2]; 1 mg/kg, IV, 1 mpk) of the same compound?
**A.** 5490 ng/mL

**Q.** What about the half-life ([2]; 1 mg/kg, IV, 1 mpk) of the same compound?
**A.** 0.7 h

**Q.** What about the Cmax ([2]; 5 mg/kg, oral, 5 mpk) of the same compound?
**A.** 716 ng/mL

**Q.** And the Tmax ([2]; 5 mg/kg, oral, 5 mpk)?
**A.** 2 h

**Q.** What about the half-life ([2]; 5 mg/kg, oral, 5 mpk) of the same compound?
**A.** 0.8 h

**Q.** And the Cl_obs ([2]; IV, 1 mpk)?
**A.** 10.50 mL/min/kg

**Q.** What about the F ([2]; oral, 5 mpk) of the same compound?
**A.** 25%

**Q.** And the C0 ([3]; 1 mg/kg, IV, 1 mpk)?
**A.** 5910 ng/mL

**Q.** What about the half-life ([3]; 1 mg/kg, IV, 1 mpk) of the same compound?
**A.** 1.1 h

**Q.** And the Cmax ([3]; 10 mg/kg, oral, 10 mpk)?
**A.** 110 ng/mL

**Q.** What about the Tmax ([3]; 10 mg/kg, oral, 10 mpk) of the same compound?
**A.** 1 h

**Q.** What about the half-life ([3]; 10 mg/kg, oral, 10 mpk) of the same compound?
**A.** 2 h

**Q.** What about the Cl_obs ([3]; IV, 1 mpk) of the same compound?
**A.** 15.71 mL/min/kg

**Q.** And the F ([3]; oral, 10 mpk)?
**A.** 3%

**Q.** Which “Median Increase In Survival” value ([4]; CAL-33, 25 mg/kg daily oral gavage) does the source give for `C[C@@H](Nc1ncnc2ccc(-c3cnc(Cl)c(NS(C)(=O)=O)c3)cc12)c1ccccc1` [Compound 2R, N-(2-chloro-5-(4-((1R-phenylethyl)amino)quinazolin-6-yl)pyridin-3-yl)methanesulfonamide] here?
**A.** >700%

**Q.** What about the “Median Increase In Survival” value ([4]; CAL-33, 50 mg/kg daily oral gavage) of the same compound?
**A.** >700%

**Q.** What about the “Median Increase In Survival” value ([4]; CAL-33, 100 mg/kg daily oral gavage) of the same compound?
**A.** >700%

**Q.** And the “single agent activity (tumor growth)” value ([4]; CAL-33 model)?
**A.** Single agent activity of Compound 2R was demonstrated

**Q.** What about the “single agent activity (tumor growth)” value [5] of the same compound?
**A.** Single agent activity of Compound 2R was demonstrated

**Q.** What about the “Median Increase In Survival” value ([6]; CAL-27, 10 mg/kg daily oral gavage) of the same compound?
**A.** 328%

**Q.** And the “Median Increase In Survival” value ([6]; CAL-27, 100 mg/kg daily oral gavage)?
**A.** >700%

**Q.** And the “Median Increase In Survival” value ([7]; HCC-70, 100 mg/kg daily oral gavage, time to 500 mg vs vehicle)?
**A.** 363%

**Q.** What about the “single agent activity (tumor growth)” value ([7]; HCC-70 model) of the same compound?
**A.** Single agent activity of Compound 2R was demonstrated

**Q.** What about the C0 ([1]; 5 mg/kg, IV, 5 mpk) of the same compound?
**A.** 25700 ng/mL

**Q.** What about the half-life ([1]; 5 mg/kg, IV, 5 mpk) of the same compound?
**A.** 2.5 h

**Q.** What about the Cmax ([1]; 25 mg/kg, oral, 25 mpk) of the same compound?
**A.** 21700 ng/mL

**Q.** What about the Tmax ([1]; 25 mg/kg, oral, 25 mpk) of the same compound?
**A.** 4.17 h

**Q.** And the half-life ([1]; 25 mg/kg, oral, 25 mpk)?
**A.** 4.9 h

**Q.** What about the “increase in exposure (AUClast/D) compared to Comparative Compound 2” value (from here on “increase in exposure (AUClast/D)”) ([1]; mice, IV) of the same compound?
**A.** ~3 fold

**Q.** And the “enhanced exposure relative to Comparative Compound 2” value ([1]; mice, oral)?
**A.** 3 fold

**Q.** And the Cl_obs ([1]; IV, 5 mpk)?
**A.** 1.2 mL/min/kg

**Q.** And the F ([1]; oral, 25 mpk)?
**A.** 83%

**Q.** And the C0 ([2]; 1 mg/kg, IV, 1 mpk)?
**A.** 7150 ng/mL

**Q.** And the half-life ([2]; 1 mg/kg, IV, 1 mpk)?
**A.** 10.4 h

**Q.** What about the Cmax ([2]; 5 mg/kg, oral, 5 mpk) of the same compound?
**A.** 7090 ng/mL

**Q.** What about the Tmax ([2]; 5 mg/kg, oral, 5 mpk) of the same compound?
**A.** 2 h

**Q.** What about the half-life ([2]; 5 mg/kg, oral, 5 mpk) of the same compound?
**A.** 12 h

**Q.** What about the Cl_obs ([2]; IV, 1 mpk) of the same compound?
**A.** 0.52 mL/min/kg

**Q.** And the F ([2]; oral, 5 mpk)?
**A.** 48%

**Q.** What about the “increase in exposure (AUClast/D)” value ([2]; dogs, dosed intravenously) of the same compound?
**A.** ~15 fold

**Q.** And the “improvement in exposure (AUClast/D) relative to Comparative Compound 2” value ([2]; dogs, oral)?
**A.** > 28 fold

**Q.** What about the C0 ([3]; 1 mg/kg, IV, 1 mpk) of the same compound?
**A.** 4170 ng/mL

**Q.** And the half-life ([3]; 1 mg/kg, IV, 1 mpk)?
**A.** 2.3 h

**Q.** And the Cmax ([3]; 10 mg/kg, oral, 10 mpk)?
**A.** 4710 ng/mL

**Q.** And the Tmax ([3]; 10 mg/kg, oral, 10 mpk)?
**A.** 2 h

**Q.** And the half-life ([3]; 10 mg/kg, oral, 10 mpk)?
**A.** 4 h

**Q.** And the Cl_obs ([3]; IV, 1 mpk)?
**A.** 4.81 mL/min/kg

**Q.** What about the F ([3]; oral, 10 mpk) of the same compound?
**A.** 59%

**Q.** And the “increase in exposure (AUClast/D)” value ([3]; monkeys, IV)?
**A.** ~3 fold

**Q.** What about the “improvement in exposure (AUClast/D) relative to Comparative Compound 2” value ([3]; monkeys, oral) of the same compound?
**A.** > 74 fold

**Q.** And the “tolerability (body weight loss, clinical signs)” value [8]?
**A.** well tolerated at the highest dose tested (100 mg/kg) with no signs of body weight loss or other clinical signs
